Values quoted from earlier work in patent US20030167159A1, “Method for determining molecular surface areas and volumes” (California Institute of Technology, priority 2001, published 2003).
Each block holds one compound with its values, some of them ahead of it. Where a SMILES comes first, the peptide text is derived from it.

Key:
Details in all cases: as reported in Bursulaya et al.
[1] = molecular target: T1, L-Arabinose binding protein (ara) (Escherichia coli, UniProt P02924)
T1 sequence (P02924 24-329): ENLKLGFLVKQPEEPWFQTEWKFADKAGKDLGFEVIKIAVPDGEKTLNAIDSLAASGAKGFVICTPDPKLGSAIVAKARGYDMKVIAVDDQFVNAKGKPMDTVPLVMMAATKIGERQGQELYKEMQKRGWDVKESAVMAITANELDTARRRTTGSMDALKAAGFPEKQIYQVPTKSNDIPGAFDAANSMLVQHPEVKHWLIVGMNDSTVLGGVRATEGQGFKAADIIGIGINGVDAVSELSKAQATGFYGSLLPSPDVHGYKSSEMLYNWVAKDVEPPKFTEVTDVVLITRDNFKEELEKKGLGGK

Carboxypeptidase A (car) = molecular target: T2, Carboxypeptidase A (car) (Bos taurus, UniProt P00730)
T2 sequence (P00730 111-419): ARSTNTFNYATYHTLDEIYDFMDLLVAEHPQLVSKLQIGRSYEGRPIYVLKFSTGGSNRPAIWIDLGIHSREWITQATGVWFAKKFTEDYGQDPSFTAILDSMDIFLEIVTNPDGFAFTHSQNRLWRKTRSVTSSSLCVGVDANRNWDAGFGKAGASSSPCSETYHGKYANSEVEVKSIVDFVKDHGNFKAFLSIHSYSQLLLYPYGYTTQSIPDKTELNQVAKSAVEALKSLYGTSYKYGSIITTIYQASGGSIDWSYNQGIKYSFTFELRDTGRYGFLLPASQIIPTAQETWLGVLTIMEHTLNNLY

ε-Thrombin (ret) = molecular target: T3, ε-Thrombin (ret) (Bos taurus, UniProt P00735)
T3 construct: ε-Thrombin (ret)

Trypsin (trp) = molecular target: T4, Trypsin (trp) (Bos taurus, UniProt P00760)
T4 sequence (P00760 24-246): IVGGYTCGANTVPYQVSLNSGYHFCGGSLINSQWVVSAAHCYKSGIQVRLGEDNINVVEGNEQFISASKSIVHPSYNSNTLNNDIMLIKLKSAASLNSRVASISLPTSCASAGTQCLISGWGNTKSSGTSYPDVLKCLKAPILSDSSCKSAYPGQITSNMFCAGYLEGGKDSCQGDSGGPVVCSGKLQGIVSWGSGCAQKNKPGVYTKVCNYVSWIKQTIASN

[2] = molecular target: T5, Cytochrome P-450cam (cyt) (Pseudomonas putida, UniProt P00183)
T5 sequence (P00183 1-415): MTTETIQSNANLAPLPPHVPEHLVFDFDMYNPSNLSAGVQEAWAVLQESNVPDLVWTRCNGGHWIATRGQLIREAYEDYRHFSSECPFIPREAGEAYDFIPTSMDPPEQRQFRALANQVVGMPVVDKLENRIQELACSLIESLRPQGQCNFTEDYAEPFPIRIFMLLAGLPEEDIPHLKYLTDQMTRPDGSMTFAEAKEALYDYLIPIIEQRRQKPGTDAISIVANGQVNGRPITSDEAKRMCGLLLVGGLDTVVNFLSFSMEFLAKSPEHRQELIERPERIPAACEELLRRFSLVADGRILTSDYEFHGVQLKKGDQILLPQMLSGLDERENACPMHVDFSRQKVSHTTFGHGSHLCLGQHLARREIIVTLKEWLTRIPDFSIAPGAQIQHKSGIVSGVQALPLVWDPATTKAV

Intestinal FABP (fab) = molecular target: T6, Intestinal FABP (fab) (Rattus norvegicus, UniProt P02693)
T6 sequence (P02693 1-132): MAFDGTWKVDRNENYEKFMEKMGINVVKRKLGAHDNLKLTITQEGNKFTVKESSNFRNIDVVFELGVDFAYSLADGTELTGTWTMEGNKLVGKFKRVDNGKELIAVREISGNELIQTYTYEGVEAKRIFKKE

SMILES: Cc1ccc(S(=O)(=O)N[C@@H](Cc2ccc(C(=N)N)cc2)C(=O)N2CCCCC2)cc1 [1ett]
percentage of ligands in the 10037-compound database that score better than the co-crystal ligand, DOCK (ε-Thrombin (ret); Dock): 0.9%
percentage of ligands in the 10037-compound database that score better than the co-crystal ligand, FlexX (ε-Thrombin (ret); FlexX): 9%
percentage of ligands in the 10037-compound database that score better than the co-crystal ligand, ICM (ε-Thrombin (ret); ICM): 0.06%

SMILES: Cc1ccc(S(=O)(=O)N[C@@H](Cc2cccc(C(=N)N)c2)C(=O)N2CCCCC2)cc1 [1pph]
percentage of ligands in the 10037-compound database that score better than the co-crystal ligand, DOCK (Trypsin (trp)): 37%
percentage of ligands in the 10037-compound database that score better than the co-crystal ligand, FlexX (Trypsin (trp)): 0.6%
percentage of ligands in the 10037-compound database that score better than the co-crystal ligand, ICM (Trypsin (trp)): 0.3%

SMILES: NCC1CCCCC1 [1tng]
percentage of ligands in the 10037-compound database that score better than the co-crystal ligand, DOCK (Trypsin (trp)): 28.7%
percentage of ligands in the 10037-compound database that score better than the co-crystal ligand, FlexX (Trypsin (trp)): 30.8%
percentage of ligands in the 10037-compound database that score better than the co-crystal ligand, ICM (Trypsin (trp)): 0.3%

SMILES: NCCc1ccccc1 [1tnj]
percentage of ligands in the 10037-compound database that score better than the co-crystal ligand, DOCK (Trypsin (trp)): 45.1%
percentage of ligands in the 10037-compound database that score better than the co-crystal ligand, FlexX (Trypsin (trp)): 47.9%
percentage of ligands in the 10037-compound database that score better than the co-crystal ligand, ICM (Trypsin (trp)): 1.1%

SMILES: NCCCc1ccccc1 [1tnk]
percentage of ligands in the 10037-compound database that score better than the co-crystal ligand, DOCK (Trypsin (trp)): 58.1%
percentage of ligands in the 10037-compound database that score better than the co-crystal ligand, FlexX (Trypsin (trp)): 37.1%
percentage of ligands in the 10037-compound database that score better than the co-crystal ligand, ICM (Trypsin (trp)): 14.6%

SMILES: N[C@H]1C[C@@H]1c1ccccc1 [1tnl]
percentage of ligands in the 10037-compound database that score better than the co-crystal ligand, DOCK (Trypsin (trp)): 82.9%
percentage of ligands in the 10037-compound database that score better than the co-crystal ligand, FlexX (Trypsin (trp)): 39.1%
percentage of ligands in the 10037-compound database that score better than the co-crystal ligand, ICM (Trypsin (trp)): 51.6%

SMILES: CC12CCC(CC1=O)C2(C)C (stereo not drawn) [2cpp]
percentage of ligands in the 10037-compound database that score better than the co-crystal ligand, DOCK ([2]; Dock): 7.3%
percentage of ligands in the 10037-compound database that score better than the co-crystal ligand, FlexX ([2]; FlexX): 12.6%
percentage of ligands in the 10037-compound database that score better than the co-crystal ligand, ICM ([2]; ICM): 11.7%

SMILES: N=C(N)c1ccccc1 [3ptb]
percentage of ligands in the 10037-compound database that score better than the co-crystal ligand, DOCK (Trypsin (trp)): 20.3%
percentage of ligands in the 10037-compound database that score better than the co-crystal ligand, FlexX (Trypsin (trp)): 14%
percentage of ligands in the 10037-compound database that score better than the co-crystal ligand, ICM (Trypsin (trp)): 0.1%

Further lines, results first:

percentage of ligands in the 10037-compound database that score better than the co-crystal ligand, DOCK [1]: 0.5%
percentage of ligands in the 10037-compound database that score better than the co-crystal ligand, FlexX [1]: 0.2%
percentage of ligands in the 10037-compound database that score better than the co-crystal ligand, ICM [1]: 0.01%
SMILES: O[C@@H]1[C@@H](O)[C@@H](O)CO[C@H]1O [1abe]

percentage of ligands in the 10037-compound database that score better than the co-crystal ligand, DOCK [1]: 1.2%
percentage of ligands in the 10037-compound database that score better than the co-crystal ligand, FlexX [1]: 0.2%
percentage of ligands in the 10037-compound database that score better than the co-crystal ligand, ICM [1]: 0.03%
SMILES: C[C@H]1O[C@H](O)[C@H](O)[C@@H](O)[C@H]1O [1abf]

percentage of ligands in the 10037-compound database that score better than the co-crystal ligand, DOCK (Carboxypeptidase A (car)): 36.8%
percentage of ligands in the 10037-compound database that score better than the co-crystal ligand, FlexX (Carboxypeptidase A (car)): 2.7%
percentage of ligands in the 10037-compound database that score better than the co-crystal ligand, ICM (Carboxypeptidase A (car)): 0.2%
SMILES: O=C(O)C[C@@H](Cc1ccccc1)C(=O)O [1cbx]

percentage of ligands in the 10037-compound database that score better than the co-crystal ligand, DOCK (Intestinal FABP (fab); Dock): 7.1%
percentage of ligands in the 10037-compound database that score better than the co-crystal ligand, FlexX (Intestinal FABP (fab); FlexX): 99.3%
percentage of ligands in the 10037-compound database that score better than the co-crystal ligand, ICM (Intestinal FABP (fab); ICM): 0.5%
SMILES: CCCCCCCCCCCCCCCC(=O)O [2ifb]

percentage of ligands in the 10037-compound database that score better than the co-crystal ligand, DOCK (Carboxypeptidase A (car)): 14.2%
percentage of ligands in the 10037-compound database that score better than the co-crystal ligand, FlexX (Carboxypeptidase A (car)): 1.4%
percentage of ligands in the 10037-compound database that score better than the co-crystal ligand, ICM (Carboxypeptidase A (car)): 0.3%
SMILES: NCC(=O)N[C@@H](Cc1ccc(O)cc1)C(=O)O [3cpa] (H-Gly-Tyr-OH)

percentage of ligands in the 10037-compound database that score better than the co-crystal ligand, DOCK [1]: 0.2%
percentage of ligands in the 10037-compound database that score better than the co-crystal ligand, FlexX [1]: 0.4%
percentage of ligands in the 10037-compound database that score better than the co-crystal ligand, ICM [1]: 0.02%
SMILES: OC[C@H]1OC(O)[C@H](O)[C@@H](O)[C@H]1O (stereo partly drawn) [5abp]
